# Read-outs that look alike come from different tables or passages of the source.
# Experiments:
# [1] = tested on: H-Y+ target cells (male splenocytes); experiment: In vivo cytotoxicity (CTL) assay against H-Y antigen; parameters: species or system C57BL/6 mice; conditions: for killing of male cells (CD8 T cell mediated): female mice primed and boosted with male splenocytes, CFSE-labeled targets, FACS, n = 8
# Experimental: C57BL/6 female and male mice, age 8 ~10 weeks, were used for in vivo cytotoxicity assays. Female mice were immunized i.p. with syngeneic C57BL/6 male splenocytes (1 × 10^7 in 100 μl PBS) at day 0 and boosted at day 10 to generate anti-H-Y cytotoxic T cells. The in vivo CTL assay was performed as described earlier with some modifications Target cells were prepared and adoptively transferred to recipient female mice at day 18 post priming and specific killing of target H-Y^+ cells was analyzed at day 19. Briefly, male and female C57BL/6 naïve splenocytes were isolated and depleted of erythrocyte with RBC lysis buffer (Sigma-Aldrich, St. Louis, MO, USA). The splenocytes were washed 1× with 10% FBS RPMI 1640 and 2× with PBS. The cell densities were adjusted to 2×10^7 cells/ml. Male splenocytes were labeled with a high concentration (5 μM) of 5,6-carboxy-fluorescein succinimdyl ester (CFSE, Molecular Probes, Eugene, OR, USA), and the female splenocyte were labeled with low CFSE (0.5 μM). CFSE labeling was carried out by incubating 2 × 10^7 cells/ml in PBS with CFSE at 37°C in a 5% CO2 incubator for 10 min and quenched by adding 10% FBS RPMI to a final volume of 50 ml. Cells were washed 1× with 10%FBS RPMI and 2× with PBS to remove free CFSE. Male and female splenocytes were mixed 1:1 in PBS for the adoptive transfer. 10^6 cells in 200 μl PBS were injected into recipient female mice via tail vein injection. Similar amounts of cell were injected into the control unimmunized female mice. Spleens from the recipient mice were harvested after 16 hr, and splenocytes were analyzed for specific killing of H-Y^+ target cells by FACS. At least 5,000 CFSE positive cells were analyzed. The recovery and percent killing of the CFSE-labeled targets were calculated as follows: […]
# Proline dipeptidase = conditions: read-out: does not inhibit Proline dipeptidase; cited from earlier work
# Prolyl endopeptidase = conditions: read-out: does not inhibit Prolyl endopeptidase; cited from earlier work
# Prolidase = conditions: read-out: does not inhibit Prolidase; cited from earlier work
# hDPP-2 = hDPP-2 (Homo sapiens, UniProt Q9UHL4); experiment: DPP-2 enzyme inhibition; assay type: biochemical
# Amino peptidase P = conditions: read-out: does not inhibit Amino peptidase P; cited from earlier work
# hDPP-9 [2] = target: T1, hDPP-9 (Homo sapiens, UniProt Q86TI2); experiment: DPP-9 enzyme inhibition; assay type: biochemical
# T1 sequence (Q86TI2 whole entry): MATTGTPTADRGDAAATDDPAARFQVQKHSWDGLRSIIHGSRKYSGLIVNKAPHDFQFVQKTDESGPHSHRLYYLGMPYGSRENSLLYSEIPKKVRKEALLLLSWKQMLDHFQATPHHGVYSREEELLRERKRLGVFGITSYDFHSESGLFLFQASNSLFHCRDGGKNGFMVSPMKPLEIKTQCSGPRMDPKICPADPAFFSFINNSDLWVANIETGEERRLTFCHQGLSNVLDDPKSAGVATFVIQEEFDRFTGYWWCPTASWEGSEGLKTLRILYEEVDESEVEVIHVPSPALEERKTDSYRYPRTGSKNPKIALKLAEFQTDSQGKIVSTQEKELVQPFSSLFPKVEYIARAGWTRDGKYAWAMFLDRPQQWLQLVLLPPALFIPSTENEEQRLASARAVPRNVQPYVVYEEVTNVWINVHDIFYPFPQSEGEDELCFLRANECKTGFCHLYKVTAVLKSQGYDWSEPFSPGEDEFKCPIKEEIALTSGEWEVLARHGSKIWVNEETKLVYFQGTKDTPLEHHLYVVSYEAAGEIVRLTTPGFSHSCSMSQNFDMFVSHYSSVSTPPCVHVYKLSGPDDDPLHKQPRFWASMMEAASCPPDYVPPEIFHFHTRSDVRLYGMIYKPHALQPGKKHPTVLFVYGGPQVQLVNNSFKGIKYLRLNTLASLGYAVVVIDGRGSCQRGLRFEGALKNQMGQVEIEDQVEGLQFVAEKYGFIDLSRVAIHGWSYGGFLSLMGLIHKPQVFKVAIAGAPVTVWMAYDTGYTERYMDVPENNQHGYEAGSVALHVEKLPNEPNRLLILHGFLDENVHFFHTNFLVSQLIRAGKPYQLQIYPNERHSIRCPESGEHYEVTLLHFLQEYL
# [3] = tested on: T cell-dependent antibody responses to NP-CGG; experiment: T cell-dependent antibody responses to NP-CGG (ELISA titers, altered ligand density ELISA); assay type: in vivo, C57BL/6 mice; conditions: mice on chow ~400 mg/kg, immunized with NP-CGG
# Experimental: Mice were immunized i.p. with 100 μg of NP-CGG in alum for the primary immunization, and 100 μg of NP-CGG in PBS i.p. for the secondary immunization. Mice were bled via the retro orbital sinus at indicated times and the levels of anti-NP and CGG antibodies and their isotypes were determined by ELISA as described previously. Briefly, mouse serum antibodies were immobilized onto 96-well plates coated with NP-BSA or CGG and detected with biotin-conjugated anti-mouse immunoglobulins. […] Relative affinities of serum antibodies were evaluated by using altered ligand density ELISA as described earlier.
# [4] = tested on: Fibroblast activation protein; conditions: read-out: does not inhibit Fibroblast activation protein; cited from earlier work
# hDPP-9 [5] = target: T1, hDPP-9; parameters: method as in PMID 16186403, PMID 16731832; conditions: read-out: does not inhibit DPP-9 at; cited from earlier work
SMILES,killing of male cells (CD8 T cell mediated) [1],IC50 (Proline dipeptidase),IC50 (Prolyl endopeptidase),"CD8 T cell cytotoxicity in comparison to the wild type animals ([1]; female mice primed with male cells, compound in chow throughout)",IC50 (Prolidase),IC50 (hDPP-2),IC50 (Amino peptidase P),IC50 (hDPP-9 [2]),"titers of anti-CGG IgG1 and other isotypes, drug treated vs control animals [3]",total anti-NP response as measured by λ-bearing and G1 isotype ([3]; primary and secondary response vs control),IC50 [4],IC50 (hDPP-9 [5])
C=CC[C@@H]1/C=C(\C)C[C@H](C)C[C@H](OC)[C@H]2O[C@@](O)(C(=O)C(=O)N3CCCC[C@H]3C(=O)O[C@H](/C(C)=C/[C@@H]3CC[C@@H](O)[C@H](OC)C3)[C@H](C)[C@@H](O)CC1=O)[C@H](C)C[C@@H]2OC [FK506],40%,–,–,–,–,–,–,–,–,–,–,–
"N[C@@H](CC(=O)N1CCn2c(nnc2C(F)(F)F)C1)Cc1cc(F)ccc1F [Des-flurositagliptin, des-fluro sitagliptin]",~ 67%,> 10 µM,> 10 µM,equivalent cytotoxicity,> 10 µM,> 10 µM,> 10 µM,> 10 µM,similar,unaltered,> 10 µM,> 10 µM
